Biological target: T1, Dimer of Gag-Pol polyprotein [489-587] (Human immunodeficiency virus 1, UniProt P12497)
T1 construct: 489-587
Assay: Protease Inhibition Assay
Experimental: For determination of IC50 values, HIV-1 protease was added to assay buffer containing inhibitor and the substrate (H-His-Lys-Ala-Arg-Val-Leu- (p-NO2) Phe-Glu-Ala-norleucine-Ser-NH2). The Leu- (p-NO2) Phe bond of the substrate was cleaved by the enzyme, and the substrate and products were separated by reversed-phase HPLC. Absorbance was measured at 220 nm, peak areas were determined, and percentage conversion to product was calculated.

Row | Compound | IC50 | IC50 (pH 4.7, 37 °C)
1 | O=C1CC2(CCCc3ccccc32)OC(=O)C1SCCc1ccccc1 (stereo not drawn) [3,4-Dihydro-4-hydroxy-5-[(2-phenylethyl)thio]-spiro[naphthalene-1(2H),2-[2H]pyran]-6 (3 H)-one] | 1300 nM | –
2 | O=C1CC2(CCCc3ccccc32)OC(=O)C1SCc1ccccc1 (stereo not drawn) [3,4-Dihydro-4-hydroxy-5-[(phenylmethyl)thio]spiro[naphthalene-1(2H),2-[2H]pyran]-6 (3 H)-one] | 2300 nM | –
3 | O=C(O)CCC1(c2ccccc2)CC(=O)C(SCCc2ccccc2)C(=O)O1 (stereo not drawn) [3-(3,6-Dihydro-4-hydroxy-6-oxo-2-phenyl-5-[(2-phenylethyl)thio]-2H-pyran-2-yl)propanoic Acid] | – | 1200 nM
4 | CCCCCC1(CCCCC)CC(=O)C(SCc2ccccc2)C(=O)O1 (stereo not drawn) [3-(Benzylsulfanyl)-4-hydroxy-6,6-dipentyl-5,6-dihydro-pyran-2-one] | 327 nM | –
5 | CC(C)CC1(c2ccccc2)CC(=O)C(SCc2ccccc2)C(=O)O1 (stereo not drawn) [3-(benzylsulfanyl)-4-hydroxy-6-(2-methylpropyl)-6-phenyl-5,6-dihydro-2H-pyran-2-one] | – | 440 nM
6 | CC(C)CCC1(c2ccccc2)CC(=O)C(SCc2ccccc2)C(=O)O1 (stereo not drawn) [3-(benzylsulfanyl)-4-hydroxy-6-(3-methylbutyl)-6-phenyl-5,6-dihydro-2H-pyran-2-one] | – | 98 nM
7 | O=C1CC(CCCCO)(c2ccccc2)OC(=O)C1SCc1ccccc1 (stereo not drawn) [3-(benzylsulfanyl)-4-hydroxy-6-(4-hydroxybutyl)-6-phenyl-5,6-dihydro-2H-pyran-2-one] | 1260 nM | –
8 | CC(C)CCCC1(c2ccccc2)CC(=O)C(SCc2ccccc2)C(=O)O1 (stereo not drawn) [3-(benzylsulfanyl)-4-hydroxy-6-(4-methylpentyl)-6-phenyl-5,6-dihydro-2H-pyran-2-one] | – | 183 nM
9 | CCCCCC1(c2ccccc2)CC(=O)C(SCc2ccccc2)C(=O)O1 (stereo not drawn) [3-(benzylsulfanyl)-4-hydroxy-6-pentyl-6-phenyl-5,6-dihydro-2H-pyran-2-one] | – | 124 nM
10 | O=C1CC(CCc2ccccc2)(c2ccccc2)OC(=O)C1SCc1ccccc1 (stereo not drawn) [3-(benzylsulfanyl)-4-hydroxy-6-phenyl-6-(2-phenylethyl)-5,6-dihydro-2H-pyran-2-one] | – | 60 nM
11 | CCCCC1(c2ccccc2)CC(=O)C(SCc2ccccc2)C(=O)O1 (stereo not drawn) [3-(benzylsulfanyl)-6-butyl-4-hydroxy-6-phenyl-5,6-dihydro-2H-pyran-2-one] | – | 270 nM
12 | CCCCCCC1(c2ccccc2)CC(=O)C(SCc2ccccc2)C(=O)O1 (stereo not drawn) [3-(benzylsulfanyl)-6-hexyl-4-hydroxy-6-phenyl-5,6-dihydro-2H-pyran-2-one] | – | 180 nM
13 | O=C1CC(c2ccccc2)(c2ccccc2)OC(=O)C1Sc1ccccc1C1CCCCC1 (stereo not drawn) [3-[(2-Cyclohexylphenyl)sulfanyl]-5,6-dihydro-4-hydroxy-6,6-diphenyl-2H-pyran-2-one] | 127 nM | –
14 | O=C1CC(CCc2ccccc2)(c2ccccc2)OC(=O)C1Sc1ccccc1C1CCCCC1 (stereo not drawn) [3-[(2-cyclohexylphenyl)sulfanyl]-4-hydroxy-6-phenyl-6-(2-phenylethyl)-5,6-dihydro-2H-pyran-2-one] | 32 nM | –
15 | O=C1CC(c2ccccc2)(c2ccccc2)OC(=O)C1Sc1ccccc1C1CCCC1 (stereo not drawn) [3-[(2-cyclopentylphenyl)sulfanyl]-4-hydroxy-6,6-diphenyl-5,6-dihydro-2H-pyran-2-one] | 14 nM | –
16 | CCC(C)c1ccccc1SC1C(=O)CC(c2ccccc2)(c2ccccc2)OC1=O (stereo not drawn) [3-[(2-sec-Butylphenyl)sulfanyl]-5,6-dihydro-4-hydroxy-6,6-diphenyl-2H-pyran-2-one] | 17 nM | –
17 | CC(C)c1ccc(C(C)(C)C)c(SC2C(=O)CC(CCc3ccccc3)(c3ccccc3)OC2=O)c1 (stereo not drawn) [3-[(2-tert-Butyl-5-isopropylphenyl)sulfanyl]-5,6-dihydro-4-hydroxy-6-phenyl-6-(2-phenylethyl)-2H-pyran-2-one] | 47 nM | –
18 | CC(C)(C)c1ccccc1SC1C(=O)CC(c2ccccc2)(c2ccccc2)OC1=O (stereo not drawn) [3-[(2-tert-Butylphenyl)sulfanyl]-5,6-dihydro-4-hydroxy-6,6-diphenyl-2H-pyran-2-one] | 49 nM | –
19 | Cc1ccc(C(C)(C)C)c(SC2C(=O)CC(c3ccccc3)(c3ccccc3)OC2=O)c1 (stereo not drawn) [3-[(2-tert-butyl-5-methylphenyl)sulfanyl]-4-hydroxy-6,6-diphenyl-5,6-dihydro-2H-pyran-2-one] | 12 nM | –
20 | CC(C)(C)c1ccccc1SC1C(=O)CC(CCc2ccccc2)(c2ccccc2)OC1=O (stereo not drawn) [3-[(2-tert-butylphenyl)sulfanyl]-4-hydroxy-6-phenyl-6-(2-phenylethyl)-5,6-dihydro-2H-pyran-2-one] | 3 nM | –
21 | CC(C)c1ccc(C(C)C)c(SC2C(=O)CC(c3ccccc3)(c3ccccc3)OC2=O)c1 (stereo not drawn) [3-{[2,5-bis(propan-2-yl)phenyl]sulfanyl}-4-hydroxy-6,6-diphenyl-5,6-dihydro-2H-pyran-2-one] | 119 nM | –
22 | CCC(C)c1ccccc1SC1C(=O)CC(CCc2ccccc2)(c2ccccc2)OC1=O (stereo not drawn) [3-{[2-(butan-2-yl)phenyl]sulfanyl}-4-hydroxy-6-phenyl-6-(2-phenylethyl)-5,6-dihydro-2H-pyran-2-one] | 10 nM | –

Row | Compound | IC50 | IC50 (pH 4.7, 37 °C)
23 | NC(=O)CCCC1(c2ccccc2)CC(=O)C(SCCc2ccccc2)C(=O)O1 (stereo not drawn) [4-(3,6-Dihydro-4-hydroxy-6-oxo-2-phenyl-5-[(phenylethyl)thio]-2H-pyran-2-yl)butyramide] | – | 1300 nM
24 | Cc1ccc(C(C)(C)C)c(SC2C(=O)CC(CCc3ccccc3)(c3ccccc3)OC2=O)c1 (stereo not drawn) [4-Hydroxy-5,6-dihydropyrone deriv. 49] | 10 nM | –
25 | Cc1ccccc1SC1C(=O)CC(c2ccccc2)(c2ccccc2)OC1=O (stereo not drawn) [4-hydroxy-3-[(2-methylphenyl)sulfanyl]-6,6-diphenyl-5,6-dihydro-2H-pyran-2-one] | 388 nM | –
26 | Cc1ccccc1SC1C(=O)CC(CCc2ccccc2)(c2ccccc2)OC1=O (stereo not drawn) [4-hydroxy-3-[(2-methylphenyl)sulfanyl]-6-phenyl-6-(2-phenylethyl)-5,6-dihydro-2H-pyran-2-one] | 73 nM | –
27 | Cc1ccc(C(C)C)c(SC2C(=O)CC(c3ccccc3)(c3ccccc3)OC2=O)c1 (stereo not drawn) [4-hydroxy-3-{[5-methyl-2-(propan-2-yl)phenyl]sulfanyl}-6,6-diphenyl-5,6-dihydro-2H-pyran-2-one] | 38 nM | –
28 | Cc1ccc(C(C)C)c(SC2C(=O)CC(CCc3ccccc3)(c3ccccc3)OC2=O)c1 (stereo not drawn) [4-hydroxy-3-{[5-methyl-2-(propan-2-yl)phenyl]sulfanyl}-6-phenyl-6-(2-phenylethyl)-5,6-dihydro-2H-pyran-2-one] | 7 nM | –
29 | CC(C)c1ccccc1SC1C(=O)CC(c2ccccc2)(c2ccccc2)OC1=O (stereo not drawn) [4-hydroxy-6,6-diphenyl-3-{[2-(propan-2-yl)phenyl]sulfanyl}-5,6-dihydro-2H-pyran-2-one] | 23 nM | –
30 | CC(C)CCC1(c2ccccc2)CC(=O)C(SCCc2ccccc2)C(=O)O1 (stereo not drawn) [4-hydroxy-6-(3-methylbutyl)-6-phenyl-3-[(2-phenylethyl)sulfanyl]-5,6-dihydro-2H-pyran-2-one] | – | 96 nM
31 | CC(C)CCCC1(c2ccccc2)CC(=O)C(SCCc2ccccc2)C(=O)O1 (stereo not drawn) [4-hydroxy-6-(4-methylpentyl)-6-phenyl-3-[(2-phenylethyl)sulfanyl]-5,6-dihydro-2H-pyran-2-one] | – | 155 nM
32 | CCCCCC1(c2ccccc2)CC(=O)C(SCCc2ccccc2)C(=O)O1 (stereo not drawn) [4-hydroxy-6-pentyl-6-phenyl-3-[(2-phenylethyl)sulfanyl]-5,6-dihydro-2H-pyran-2-one] | – | 84 nM
33 | CC(C)c1ccccc1SC1C(=O)CC(CCc2ccccc2)(c2ccccc2)OC1=O (stereo not drawn) [4-hydroxy-6-phenyl-6-(2-phenylethyl)-3-{[2-(propan-2-yl)phenyl]sulfanyl}-5,6-dihydro-2H-pyran-2-one] | 14 nM | –
34 | O=C(O)CCCC1(c2ccccc2)CC(=O)C(SCCc2ccccc2)C(=O)O1 (stereo not drawn) [4-{4-hydroxy-6-oxo-2-phenyl-5-[(2-phenylethyl)sulfanyl]-3,6-dihydro-2H-pyran-2-yl}butanoic acid] | – | 270 nM
35 | O=C1CC2(CCc3ccccc32)OC(=O)C1SCc1ccccc1 (stereo not drawn) [5'-(benzylsulfanyl)-4'-hydroxy-3',6',2,3-tetrahydrospiro[indene-1,2'-pyran]-6'-one] | 11800 nM | –
36 | O=C1CC(c2ccccc2)(c2ccccc2)OC(=O)C1Sc1ccccc1 (stereo not drawn) [5,6-Dihydro-4-hydroxy-6,6-diphenyl-3-(phenylthio)-2H-pyran-2-one] | – | 110 nM
37 | O=C1CC(c2ccccc2)(c2ccccc2)OC(=O)C1SCCc1ccccc1 (stereo not drawn) [5,6-Dihydro-4-hydroxy-6,6-diphenyl-3-[(2-phenylethyl)thio]-2H-pyran-2-one] | – | 152 nM
38 | O=C1CC(c2ccccc2)(c2ccccc2)OC(=O)C1SCc1ccccc1 (stereo not drawn) [5,6-Dihydro-4-hydroxy-6,6-diphenyl-3-[(phenylmethyl)thio]-2H-pyran-2-one] | – | 262 nM
39 | CC(C)CC1(c2ccccc2)CC(=O)C(SCCc2ccccc2)C(=O)O1 (stereo not drawn) [5,6-Dihydro-4-hydroxy-6-(2-methylpropyl)-6-phenyl-3-[(2-phenylethyl)thio]-2H-pyran-2-one] | – | 1200 nM
40 | CC(C)CCC1(c2ccccc2)CC(=O)C(Sc2ccccc2)C(=O)O1 (stereo not drawn) [5,6-Dihydro-4-hydroxy-6-(3-methylbutyl)-6-phenyl-3-(phenylthio)-2H-pyran-2-one] | – | 1400 nM
41 | CN(CC1(c2ccccc2)CC(=O)C(SCCc2ccccc2)C(=O)O1)c1ccccc1 (stereo not drawn) [5,6-Dihydro-4-hydroxy-6-[(methylphenylamino)methyl]-6-phenyl-3-[(2-phenylethyl)thio]-2H-pyran-2-one] | 2280 nM | –
42 | O=C1CC(COc2ccccc2)(c2ccccc2)OC(=O)C1SCc1ccccc1 (stereo not drawn) [5,6-Dihydro-4-hydroxy-6-phenoxymethyl-6-phenyl-3-[(phenylmethyl)thio]-2H-pyran-2-one] | 172 nM | –
43 | O=C1CC(c2ccccc2)OC(=O)C1SCCc1ccccc1 (stereo not drawn) [5,6-Dihydro-4-hydroxy-6-phenyl-3-[(2-phenylethyl)thio]-2H-pyran-2-one] | – | 2100 nM
